# Data published in PMC12066474, “Ex vivo quantification of intracellular pH in Drosophila Malpighian tubule reveals basolateral HCO3 ^−/oxalate exchange through a novel oxalate transporter “Neat”” (Frontiers in Physiology, 2025).
# Target: T1, Neat (CG5002) (Drosophila melanogaster, UniProt Q7K4I4)
# T1 construct: coding region in pGEMHE, cRNA expressed in Xenopus laevis oocytes
# T1 sequence (Q7K4I4 1-595): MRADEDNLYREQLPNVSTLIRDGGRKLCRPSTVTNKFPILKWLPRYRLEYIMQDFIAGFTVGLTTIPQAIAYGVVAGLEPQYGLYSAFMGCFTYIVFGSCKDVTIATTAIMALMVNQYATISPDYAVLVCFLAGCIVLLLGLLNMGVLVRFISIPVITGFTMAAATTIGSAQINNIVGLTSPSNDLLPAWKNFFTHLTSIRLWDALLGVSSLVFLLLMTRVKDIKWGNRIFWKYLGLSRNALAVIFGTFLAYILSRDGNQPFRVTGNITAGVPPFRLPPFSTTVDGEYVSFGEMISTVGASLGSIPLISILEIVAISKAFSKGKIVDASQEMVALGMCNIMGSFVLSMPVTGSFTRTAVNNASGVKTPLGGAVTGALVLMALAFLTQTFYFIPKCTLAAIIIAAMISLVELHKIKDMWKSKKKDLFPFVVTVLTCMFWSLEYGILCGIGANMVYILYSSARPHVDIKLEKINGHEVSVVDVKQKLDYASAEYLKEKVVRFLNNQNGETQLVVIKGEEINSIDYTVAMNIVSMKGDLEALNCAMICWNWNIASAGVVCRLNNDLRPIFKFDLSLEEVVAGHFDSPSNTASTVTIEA
# Assay type: cell-based
# Conditions: 5% CO2/33 mM HCO3−, pH 7.5
smiles,measurement,value
O=C(O)O [HCO3 ^−],intracellular pH microelectrode in Xenopus oocytes,Neat demonstrated electroneutral HCO3 ^− influx in the presence of HCO3 ^−/CO2 buffered saline
